Read-outs that look alike come from different tables or passages of the source.
Columns and labels:
Assay type in all cases: cell-based
[1] = system: E. coli JM83 containing pUC
[2] = system: E. coli JM83 containing pUC with cloned czrB; assay: Minimal inhibitory concentrations (MICs) for metal cations, JM83 containing pUC with cloned czrB; conditions: clone +pUC-czrB
E. coli JM83 = assay: Minimal inhibitory concentrations (MICs) for metal cations, E. coli JM83; conditions: 40 h at 37° C.
E. coli cells [3] = assay: Growth of E. coli with czrB expressed from lac promoter in pUC-based vector; conditions: Plac induction; no bacteriophage, no recombinant antibody
Text: To investigate this theory further, czrB was expressed from a lac promoter in a standard pUC-based expression vector, in the absence of bacteriophage particles and the recombinant antibody used in experiments thus far. […] This raises the possibility that CzrB, in its full length form or as a truncated version, might function as an “universal chaperone”, which would facilitate the expression of any recombinant or heterologous proteins produced in an E. coli host.

E. coli cells [4] = assay: Growth (OD600) of E. coli clones during bacteriophage and recombinant antibody production; conditions: pHB102 phagemid, during phage and antibody production
Description: E. coli cells harbouring the Thermus library were inoculated to an OD600<0.05 in 10 ml 2xYT medium containing tetracycline (15 μg/ml), additional salts (8.6 mM NaCl; 2.5 mM KCl; 10 mM MgCl2) and 0.4% glucose. After 1 h at 37° C., 30 μg/ml chloramphenicol was added, followed by 10^10 pfu of helper phage (VCSM13 helper phage; Stratagene) at an OD600 of 0.5. Incubation at 50° C. for 5 min was followed by the addition of 50 ml 2xYT containing tetracycline, chloramphenicol, additional salts and 0.5 mM isopropyl-β-D-thiogalactoside (IPTG). The culture was shaken at 40° C. for 2 h and, after the addition of 30 μg/ml kanamycin, grown for a further 12-14 h at 40° C. Phage particles were precipitated from culture supernatants by two PEG precipitation steps and resuspended in 1 ml PBS (8 g NaCl, 0.24 g KH2PO4, 1.44 g Na2HPO4, 0.2 g KCl in 1 L, pH 7.4). Immunotubes (Nunc) were coated overnight at 4° C. with 1 μg/ml fluorescein-isothiocyanate coupled to bovine serum albumin (FITC-BSA) (Bothmann, H. and Plückthun, A (1998) supra) in PBS. […]
E. coli cells infected with phage were grown as described in Example 1. The OD600 was read at hourly intervals for the first 8-10 h after induction. […]

E. coli cultures [5] = assay: Anti-FITC ELISA of phage-displayed functional antibody; conditions: 10 and 22 h after induction
Description: (§1) Individual clones were analysed by restriction digestion after 22 h of induction to confirm that they contained both the Thermus insert and the recombinant antibody gene. […] Immunoplate wells (Nunc) were coated with 100 μl of FITC-BSA and blocked with 5% skimmed milk in PBST. After washing, 100 μl of phage solutions containing 0.5% skimmed milk were added and incubated for 2 h at 25° C. Phage particles were detected using a peroxidase-conjugated anti-M13 antibody (1:3000 in PBST; Amersham Pharmacia Biotech Inc.) and development was carried out using a BM Blue POD soluble substrate (Roche Diagnostics). After stopping the reaction using 25 μl of 1 N H2SO4, the absorbance was read at 405 nm. […] The results are depicted in FIGS. 6 and 7.
FIG. 7 depicts ELISA analysis of clones expressing czrB. […] Results are shown for samples taken 10 and 22 h after induction.

E. coli cells [6] = assay: Intracellular zinc concentration in E. coli clones (atomic absorption); conditions: 1 h incubation in 0, 1, 2, 5 mM extracellular zinc; vs JM83 and pUC alone
Text: Metal resistances of the type observed with the czrB clones can be the result of metal sequestering or modification of metal transport processes. However, based on reports of CzrB homologues in other organisms it was postulated that the protein CzrB provided resistance to heavy metal ions by an efflux mechanism rather than by metal sequestering. Therefore, the ability of the T. thermophilus CzrB protein to pump zinc ions out of the E. coli cells in which it was expressed was investigated. Intracellular zinc concentrations were measured as follows: E. coli clones were grown at 37° C. in LB medium (100 μg/ml ampicillin, 25 μg/ml streptomycin) in the presence or absence of 165 μM ZnCl2 until an OD600 of 1.0 was reached. After addition of 1, 2 or 5 mM ZnCl2, growth was continued for 30 min, 1 h or 2 h, with control cultures grown in the absence of ZnCl2. […] The zinc concentration was measured in the supernatant using an atomic absorption spectrophotometer (Varian SpectrAA-400 Plus), with standard solutions prepared immediately before use from commercial standards (Fisher Scientific). […] The results are shown in FIG. 3 which depicts a quantification of intracellular zinc levels in E. coli clones: JM83 (“JM83”), JM83 containing pUC (“pUC”), and JM83 containing pUC-czrB without (“czrB”) and with (“czrB (Zn)”) a zinc pre-induction step. […]

E. coli cultures [7] = assay: Phage titers of E. coli clones; conditions: pHB102 vs pHB102-czrB; 10 and 22 h after induction
Description: as §1
FIG. 6 depicts phage titers of clones expressing czrB. The phage titers of clones containing pHB102 phagemid vector or pHB102-czrB expressed as colony forming units (cfu) were determined 10 and 22 h after induction.

[8] = pre-induction cadmium (80 μM CdCl2)
[9] = pre-induction cobalt (220 μM CoCl2)
[10] = pre-induction zinc (165 μM ZnCl2)
[11] = clone +pUC, pre-induction cadmium (80 μM CdCl2)
[12] = clone +pUC, pre-induction cobalt (220 μM CoCl2)
[13] = clone +pUC, pre-induction none, 40 h at 37° C.
[14] = clone +pUC, pre-induction zinc (165 μM ZnCl2)

[Cl-].[Cl-].[Co+2] [Cobalt, CoCl2]
MIC [1]: 2100 µM
MIC ([1]; 40 h at 37° C.): 2100 µM
MIC [2, 8]: 2100 µM
MIC [2, 9]: 2100 µM
MIC ([2]; pre-induction none): 2100 µM
MIC [2, 10]: 2100 µM
MIC (E. coli JM83): 2100 µM

[Cl-].[Cl-].[Zn+2] [Zinc, ZnCl2]
MIC [1, 11]: 1600 µM
MIC [1, 12]: 1600 µM
MIC [1, 13]: 1600 µM
MIC [1, 14]: 1600 µM
MIC [2, 8]: 2200 µM
MIC [2, 9]: 2100 µM
MIC ([2]; pre-induction none): 1900 µM
MIC [2, 10]: 2500 µM
MIC (E. coli JM83; clone JM83, pre-induction none): 2000 µM

[Cl][Cd][Cl] [Cadmium, CdCl2]
MIC [1, 11]: 700 µM
MIC [1, 12]: 900 µM
MIC [1, 13]: 900 µM
MIC [1, 14]: 900 µM
MIC [2, 8]: 900 µM
MIC [2, 9]: 1100 µM
MIC ([2]; pre-induction none): 1000 µM
MIC [2, 10]: 1000 µM
MIC (E. coli JM83; clone JM83, pre-induction none): 900 µM

B1: czrB: Polypeptide factor from Thermus thermophilus, 291 amino acids (SEQ ID NO: 1), co-expressed in E. coli (protein)
chain: MAEGAARLSLVVALLVLGLKAFAYLLTGSVALLSDALESLVNVAAALAALLALRVARKPPDQNHPFGHTKAEYVSAVLEGVLVVLAALWIAREALPRLLHPVPLEGLGLGLGVSLLASLLNGLLAYHLLKEGRRHRSPALTADGYHVLSDVLTSLGVVLGVGLAGLTGLWVLDPLLALAVAGQILFLGYRIVRESVGGLMDEGLPPEEVERIRAFLQERIRGRALEVHDLKTRRAGPRSFLEFHLVVRGDTPVEEAHRLCDELERALAQAFPGLQATIHVEPEGERKRTNP
modifications: Thermus thermophilus CzrB
E. coli cell growth relative to cells containing the vector alone (E. coli cells [3]): same pattern of E. coli cell growth
cell densities attained relative to cells containing just the phagemid vector (E. coli cells [4]): greater than 2 fold
amount of functional antibody relative to cultures containing the vector alone (E. coli cultures [5]): more than twice
levels of zinc in E. coli cells (E. coli cells [6]): significantly reduce
phage titres relative to cultures containing the vector alone (E. coli cultures [7]): two-fold higher

B2: partial czrB: Truncated form of the CzrB protein, 92 amino acids (SEQ ID NO: 2), C-terminal cytoplasmic tail (protein)
chain: MDEGLPPEEVERIRAFLQERIRGRALEVHDLKTRRAGPRSFLEFHLVVRGDTPVEEAHRLCDELERALAQAFPGLQATIHVEPEGERKRTNP
modifications: Thermus thermophilus CzrB
growth characteristics (E. coli cells [4]): intermediate between the full-length czrB clone and cells containing the phagemid vector
amount of functional antibody relative to cultures containing the vector alone (E. coli cultures [5]): intermediate between the full-length gene and the control culture
phage titres relative to cultures containing the vector alone (E. coli cultures [7]): intermediate between the full-length gene and the control culture

Source: patent US7723072B2, “Polypeptide factor from a thermophilic eubacterial species and use thereof in the production of functional, heterologous proteins in an expression host” (University of Limerick, priority 2003, dated 2010)
